Experimental data published in article PMC6470533, “Structure–Activity Study, Characterization, and Mechanism of Action of an Antimicrobial Peptoid D2 and Its D- and L-Peptide Analogues” (Molecules, 2019).
In brackets after ≈: the same amount, converted by molar mass. Non-standard residues stand in square brackets, D forms with d. Residues, ends and D or L forms follow the SMILES beside them. N(1-naphthylmethyl)Gly = O=C(O)CNCc1cccc2ccccc12; d1Nal = N[C@H](Cc1cccc2ccccc12)C(=O)O; N(4-MeBn)Gly = Cc1ccc(CNCC(=O)O)cc1; dNle = CCCC[C@@H](N)C(=O)O; NBuGly = CCCCNCC(=O)O; Nlys = NCCCCNCC(=O)O

Tests used:
[1] = tested on: DNA synthesis in MRSP E104; assay: Macromolecule biosynthesis assay, DNA (3H-thymidine); assay type: cell-based, Staphylococcus pseudintermedius; details: 0.5× MIC, 20 min incubation, MRSP E104, 3H-thymidine; means of two experiments
Method: (§1) The effect on DNA and cell wall synthesis was investigated after 20 min of incubation of MRSP E104 with the precursors ^3H-thymidine and ^3H-glucosamine hydrochloride, respectively, as previously reported by Ling et al.. Following macromolecule precipitation, radioactivity was counted using scintillation fluid. Incorporation of ^3H- or ^14C-labeled thymidine has been used to investigate DNA replication and transcriptional activity during the cell cycle; ^3H-glucosamine hydrochloride has been used in a mode of action study for the antimicrobial peptide plectasin, which targets the cell wall precursor lipid II [44].
(§2) Macromolecules (DNA and cell wall) biosynthesis rates were measured using strain MRSP E104 following a protocol adapted from Ling et al.. Briefly, overnight culture of E104 was diluted 1:100 in MHB and freshly grown up to OD 0.2 at 600 nm. Grown cells were pelleted down by centrifugation and then resuspended in fresh MHB medium followed by incubation for 20 min on a dry heat-bath with D2 or analogues or nisin and radiolabeled precursor: (50 µCi) ^3H-Thymidine (PerkinElmer) and (5 µCi) ^3H-glucosamine hydrochloride per mL for DNA and cell wall, respectively. A positive control without antimicrobials was maintained that corresponds to 100% synthesis rate. After 20 min of incubation, samples were precipitated with equal volume of cold 30% trichloroactic acid (TCA Sigma, Søborg, Denmark) on ice. After 15 to 30 min of incubation on ice, precipitates were filtered on a membrane filter and subsequently washed twice with cold 15% TCA and twice with cold water using a vacuum manifold. Next, filters were air dried overnight and then moved to 10 mL scintillation vials. Finally, 3 mL scintillation fluid was added to each vial and ^3H count was taken in Beckman Coulter LS6500 liquid scintillation counter for 1 min. The radioactive counts of the control samples with no antimicrobial exposure were considered to have 100% precursor incorporation and macromolecule synthesis. The percentage rates of macromolecule synthesis in the antimicrobial-exposed samples were calculated compared to control. Each experiment was performed twice with a technical replicate, and the average rates of synthesis were plotted.

[2] = tested on: membrane proton motive force of E104 cells; assay: DiSC3(5) fluorescence, membrane depolarization; assay type: cell-based, Staphylococcus pseudintermedius; details: 0.5× MIC, n = 2
Excerpt: In this study, the DiSC3(5) probe was used to assess the effect of D2 and its structural analogues D2L, D2D, and D2R on cytoplasmic membrane depolarization. DiSC3(5) is a cationic carbocyanine dye, which accumulates on negatively charged membrane, translocates into lipid membrane with a distribution dependent on plasma and mitochondrial membrane potential. Altered emission profile of DiSC3(5) measured via fluorescence spectroscopy indicates membrane depolarization caused by proton motive force dissipation, ATP production and/or pore formation. The increment of DiSC3(5) fluorescence of labeled cells resulting from its leakage upon addition of antimicrobial agents is usually measured over time. The protonophore carbonyl cyanide metachlorophenyl hydrazone (CCCP) is used as positive control, which rapidly dissipates PMF increasing proton permeability, alters both membrane proton gradient and transmembrane electric potential and decreases cellular ATP content. Based on the MIC and growth analysis results, sub-lethal concentrations of D2 and selected analogues were chosen to perform DiSC3(5) fluorescence and macromolecule biosynthesis studies.
Freshly grown E104 cells with OD 0.2 at 600 nm were labeled with 1 µM 3,3-dipropylthiadicarbocyanine iodide [DiSC3(5)] (Sigma-Aldrich, Søborg, Denmark) in MHB. The fluorescence spectra of fluorophore-labeled cells were plotted using the LS-50B luminescence spectrometer (PerkinElmer, Waltham, MA, USA) at excitation/emission wavelengths 546 nm/573 nm using time drive application of FLWINLAB software. After reading initial stable emission spectra of DiSC3(5), labeled cells were exposed with D2 or analogues or nisin or protonophore CCCP by directly injecting the concentrated solution of agent to the cuvette, and the change of fluorescence over time was recorded until emission spectra reached to stability. The increment of DiSC3(5) fluorescence upon addition of antimicrobials or CCCP (FUafter-exposure – FUbefore-exposure) was calculated and plotted in addition to raw fluorescence spectra. Experiment was performed twice and average fluorescence change was plotted with standard deviation.

[3] = tested on: Methicillin sensitive Staphylococcus pseudintermedius (26916); assay type: cell-based; details: 18 h
[4] = tested on: cell wall synthesis in MRSP E104; assay: Macromolecule biosynthesis assay, cell wall (3H-glucosamine hydrochloride); assay type: cell-based, Staphylococcus pseudintermedius; details: 0.5× MIC, 20 min incubation, MRSP E104, 3H-glucosamine hydrochloride; means of two experiments
Method: as §1, §2

[5] = tested on: other selected dog pathogens; assay: MIC against other selected dog pathogens; assay type: cell-based; details: summary of Table 4, except for P. mirabilis
Excerpt: We screened the antimicrobial activity of D2 and the analogue D2D against a number of canine pathogens (Table 4). These included Acinetobacter baumannii, Escherichia coli, Enterococcus faecalis, and Klebsiella pneumoniae isolated from wounds, Corynebacterium auriscanis associated with canine otitis externa, the nosocomial pathogen Enterococcus faecium, the endocartitis-causing Streptococcus canis, and Proteus mirabilis
(§3) To explore the antimicrobial activity of the library of peptides and peptidomimetics, they were tested against Acinetobacter baumannii, Corynebacterium auriscanis, Escherichia coli, Enterococcus faecalis, Enterococcus faecium, Klebsiella pneumonia, Proteus mirabilis, and Pseudomonas aeruginosa. Bacteria grown on agar plates for 18 h at 37 °C were diluted to ~1 × 10^8 CFU/mL in Mueller–Hinton broth (MHB). Two-fold serial dilutions of peptides and peptidomimetics in MHB II were inoculated with bacteria to achieve a final concentration of 5 × 10^5 CFU/mL in polypropylene 96 U-well microtiter plates (Almeco, Esbjerg, Denmark), followed by incubation at 37 °C in ambient air for 18 h. The MIC values were determined as the lowest concentration showing no visible bacterial growth. Experiments were performed twice (in technical triplicates) on two different days.

[6] = tested on: Methicillin resistant Staphylococcus pseudintermedius, (C22963); assay type: cell-based; details: 18 h
[7] = tested on: P. aeruginosa isolates from canine infections; assay type: cell-based, Pseudomonas aeruginosa
Method: as §3

[8] = cited from earlier work
Excerpt: We have previously described a promising antimicrobial peptoid, D2, which is active against MRSP and P. aeruginosa, resistant to plasma proteases and hepatic clearance in vitro, and is suitable for topical administration to treat superficial pyoderma. In the present study, we investigated the structural features responsible for antimicrobial activity of D2 by (a) performing Gly-scan to analyze the residues crucial for activity; (b) investigating the effects of single substitution in order to increase activity; (c) exploring the effect of the peptoid backbone by exchanging L- and D- amin ...

[9] = tested on: S. pseudintermedius isolates from canine infections; assay type: cell-based, Staphylococcus pseudintermedius; details: 50 isolates from canine infections

| Compound | inhibition of DNA biosynthesis rate [1] | effect on PMF (membrane depolarization, DiSC3(5) fluorescence) [2] | MIC MSSP [3] | effect on (inhibition of) cell wall synthesis [4] | MIC range against other selected dog pathogens [5] | MIC MRSP [6] | MICs against canine P. aeruginosa isolates ([7]; isolates from canine infections, 18 h) | resistance to hepatic clearance [8] | resistance to plasma proteases [8] | MIC range, panel of 50 S. pseudintermedius isolates [9] | MIC range, panel of 50 P. aeruginosa isolates ([7]; 50 isolates from canine infections) |
| --- | --- | --- | --- | --- | --- | --- | --- | --- | --- | --- | --- |
| CCCC[C@@H](NC(=O)[C@@H](CCCCN)NC(=O)[C@@H](Cc1cccc2ccccc12)NC(=O)[C@@H](CCCCN)NC(=O)[C@@H](Cc1ccccc1)NC(=O)[C@@H](Cc1cccc2ccccc12)NC(=O)[C@@H](CCCCN)NC(=O)[C@H](N)CCCCN)C(N)=O [D2D] (H-[dK][dK][d1Nal][dF][dK][d1Nal][dK][dNle]-NH2) | 37% | lowest activity on PMF | 1 to 4 µg/mL | 39% | 2 to 16 µg/mL | 4 µg/mL (≈ 3.38 µM) | 4 µg/mL |  |  |  |  |
| CCCCN(CC(N)=O)C(=O)CN(CCCCN)C(=O)CN(Cc1cccc2ccccc12)C(=O)CN(CCCCN)C(=O)CN(Cc1ccc(C)cc1)C(=O)CN(Cc1cccc2ccccc12)C(=O)CN(CCCCN)C(=O)CNCCCCN [D2] (H-[Nlys][Nlys][N(1-naphthylmethyl)Gly][N(4-MeBn)Gly][Nlys][N(1-naphthylmethyl)Gly][Nlys][NBuGly]-NH2) | < 5% |  | 2 to 4 µg/mL | 28% |  | 4 µg/mL (≈ 3.34 µM) |  | resistant | resistant | 1.56 to 3.12 µM | 3.12 to 12.5 µM |
